Experimental findings from paper PMC8863579, “Effects of pharmacological inhibition of the sodium‐dependent phosphate cotransporter 2b (NPT2b) on intestinal phosphate absorption in mouse and rat models” (Pharmacology Research & Perspectives, 2022) are described below.

pIC50: −log10 of the molar value. Where “and” joins values, the source holds several entries; their conditions need not be identical. Identical values can stand only once.

For series [1], the system named is intestinal phosphate absorption. The series is described as follows: Recovery of radiolabeled phosphate in feces of rats. The format is in vivo, rat. The following applies: LY3358966 10 mg/kg. How it is done: Male Sprague Dawley rats, 260–287 g for the first study and 274–362 g for the second study, were fasted for 4 h (the first 4 h of the light cycle) then dosed with placebo, a 50 or 150 mg/kg sevelamer HCl water dispersion, LY3358966 SDD (10 mg/kg API) dissolved in water, or a combination of LY3358966 SDD and sevelamer HCl. Fifteen minutes later, the animals were dosed with radiolabeled phosphate as described above. In the first study, the animals were given free access to food, then feces were collected at 6, 24, and 48 h post radiolabeled phosphate dose. In the second study, the animals were fasted an additional 4 h, then feces, stomach, small intestine, and large intestine were individually collected. The gastrointestinal tract tissues and feces were digested overnight at 37°C in 1 N NaOH, and the recovered radioactivity was determined.

Series [2] in a line: Solubility at stomach pH. The format is physicochemical. The conditions noted are these: at the pH of the stomach.
The target in series [3] is T1, Human NPT2c (Homo sapiens, UniProt Q8N130).
T1 construct: Full Length cDNA Cloning and Generation of Cell Lines Over-Expressing Human NPT2a, NPT2c, Pit1, and Pit2; host or cells: CHO-K1 / T-REx CHO, pJTI R4 CMV-TO, tetracycline-induced
T1 sequence (Q8N130 1-599): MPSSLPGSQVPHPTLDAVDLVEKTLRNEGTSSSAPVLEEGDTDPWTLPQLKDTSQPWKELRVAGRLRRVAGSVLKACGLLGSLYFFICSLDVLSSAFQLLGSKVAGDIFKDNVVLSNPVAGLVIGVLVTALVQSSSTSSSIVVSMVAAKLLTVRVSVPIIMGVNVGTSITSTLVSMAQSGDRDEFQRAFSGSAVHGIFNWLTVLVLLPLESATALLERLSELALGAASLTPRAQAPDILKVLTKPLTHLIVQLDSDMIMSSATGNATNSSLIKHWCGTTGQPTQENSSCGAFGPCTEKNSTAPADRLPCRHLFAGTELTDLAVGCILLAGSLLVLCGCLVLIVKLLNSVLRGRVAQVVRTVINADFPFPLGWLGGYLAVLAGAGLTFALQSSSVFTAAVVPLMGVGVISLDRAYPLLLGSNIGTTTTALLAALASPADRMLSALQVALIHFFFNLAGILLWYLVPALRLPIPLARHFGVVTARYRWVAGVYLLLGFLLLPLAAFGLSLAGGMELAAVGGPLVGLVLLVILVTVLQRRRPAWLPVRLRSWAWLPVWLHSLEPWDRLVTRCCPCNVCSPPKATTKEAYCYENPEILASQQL
Briefly: 33P-phosphate uptake in CHO cells expressing human NPT2c. The format is cell-based. How it is done: T‐Rex™ Chinese Hamster Ovary cells (CHO; Thermo Fisher Scientific) stably expressing human, mouse, or rat NPT2b under a tetracycline‐inducible promoter were generated using standard cDNA transfection and clone selection procedures (see Supporting Information). Cells were plated in 96‐well CytoStar‐T® scintillating microplates and were incubated overnight in growth media plus 100 ng/ml of tetracycline to induce expression of NPT2b. The next day, cells were washed 3 times with 200 µl assay buffer (137 mM NaCl, 5.4 mM KCl, 2.8 mM CaCl2, 1.2 mM MgSO4, and 14 mM Tris‐HCl buffer, pH 7.5). LY3358966 serially diluted 1‐to‐3 in DMSO was added to cells with assay buffer. An equal volume of H3 ^33PO4 (PerkinElmer) in assay buffer supplemented with 5 µM potassium phosphate was then added to initiate radiolabeled phosphate (^33P‐phosphate) uptake. […] The plate was immediately read on a Wallac MicroBeta Trilux liquid scintillation counter. Percent inhibition at all concentrations tested was calculated, and IC50 values were then determined using a 4‐parameter logistic curve fitting equation.
Similar methods were used to measure the effects of LY3358966 on other transporters of interest, except that constitutive promoters were used to generate CHO cells over‐expressing human PiT1 and PiT2. The ^33P‐phosphate uptake was measured after 45 min at 20°C for the NPT2a, NPT2c, PiT1, and PiT2 assays. […]

Series [4] can be described thus: Unbound fraction in plasma by equilibrium dialysis. The series is classed as in vitro ADME. The conditions noted are these: mouse plasma. How it is done:
Male CD‐1 male mice were orally dosed with 1, 3, or 10 mg/kg API of LY3358966 SDD dissolved in water or were IV dosed with 1 mg/kg LY3358966 formulated in 25% dimethylacetamide, 15% ethanol, 10% propylene glycol, 25% 2‐pyrrolidone, and 25% water. Each dose group contained six animals. Three animals were bled at 0.25, 0.5, 1, 2, 4, 8, 12, and 24 h, with each animal being bled at alternate time points. Plasma drug levels were determined by HPLC/MS. The unbound fraction of LY3358966 in plasma was determined with equilibrium dialysis and LC‐MS/MS.
For orientation: In equilibrium dialysis only unbound substance equilibrates across the membrane.

What is called pIC50 is the IC50 on a negative log10 scale, so that one unit is a factor of ten. As a reminder, the fraction unbound is the share of the substance not bound to proteins or other matrix. The low end stands for extensive binding, the high end for weak binding. `CC1(C)CN(C(=O)NCCCCO)CCN1Cc1cccc(C(=O)Nc2sc3c(c2C(=O)Nc2cc(F)c(CCc4ccc(C(=O)O)cc4)c(F)c2)CCCC3)c1` [LY3358966, 4‐[2‐[2,6‐difluoro‐4‐[[2‐[[3‐[[4‐(4‐hydroxybutylcarbamoyl)‐2,2‐dimethyl‐piperazin‐1‐yl]methyl]benzoyl]amino]‐4,5,6,7‐tetrahydrobenzothiophene‐3‐carbonyl]amino]phenyl]ethyl]benzoic acid]: the “NPT2b inhibitor mediated recovery in feces (difference between placebo and LY3358966-treated groups)” value in series [1] (48 h, 10 mg/kg) is 5.3% and 5.34%. Also, in series [1], the “33P Recovered in Feces (0-6 hrs), Mean ± SEM” value is 0.23 ± 0.19%; the “33P Recovered in Feces (6-24 hrs), Mean ± SEM” value stood at 16.62 ± 1.04%; the “33P Recovered in Feces (24-48 hrs), Mean ± SEM” value stood at 1.44 ± 0.14%. Besides, the “33P Recovered in Feces Total (0-48 hrs), Mean ± SEM” value in series [1] (10 mg/kg) was found to be 18.29 ± 1.04%. In addition, the solubility result in series [2] is “minimal solubility”. The molecule further gave a pIC50 in series [3] (geometric mean, 45 min at 20°C) of 6.60. Also, the Selectivity in series [3] (ratio of IC50 of human NPT2c assay to that of human NPT2b assay) is recorded as 8. Also, the fraction unbound in series [4] came out at 0.005.
